Test systems include DLD-1; DMS-273; KM-20L2; LXFL 529; M19-MEL; RXF 631; SNB-78; HOP-18; XF498.
Holding throughout (assay): growth of human tumour cells (NCI), 48 h

Several values for one entry are separate records, joined by “and”; a condition that tells them apart may be missing. Equal entries are not always repeated.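 In this assay, cells in 96-well plates receive the compound at five concentrations for 48 hours. Endpoints are linearly interpolated between the surrounding concentrations. Abbreviation: GI50, concentration required for 50% inhibition of growth.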 Activity calls are given as the source filed them. Cut-off read from the data, not from the text of the source: active = GI50 up to about 1.1 µM and inactive = higher. Some results are limits rather than exact numbers.

Data on 25 compounds can be found in ChEMBL document CHEMBL1201862, “PubChem BioAssay data set” (2004).

Consider `COc1ccc(C(=O)C(c2ccc(OC)cc2)C2(O)C(=O)Nc3c(C)cc(Cl)cc32)cc1` (stereo unspecified), for which the GI50 with DLD-1 was 76.4 µM (inactive); in the assay with DMS-273 it was 58.9 µM (inactive); in the assay with KM-20L2, > 100 µM (inactive); in the assay on LXFL 529 it was 37.7 µM (inactive); in the assay on M19-MEL, 20.8 µM (inactive); in the assay on RXF 631 it was 59 µM (inactive). In the assay with SNB-78, the GI50 was > 100 µM (inactive).
`CN(C(=O)c1ccco1)C(=S)N1CCN(c2ccccc2)CC1`: the GI50 in the assay on DLD-1, in the assay with DMS-273, in the assay on HOP-18, with KM-20L2, in the assay with LXFL 529 and in the assay on M19-MEL was > 100 µM (inactive) in each case. The GI50 with XF498 is > 100 µM (inactive).
`Cc1ccc(S(=O)(=O)SC/C=C\CSS(=O)(=O)c2ccc(C)cc2)cc1`: the GI50 in the assay on DLD-1 is 22.1 µM (inactive) and 29.1 µM (inactive); in the assay on KM-20L2, 23.2 µM (inactive) and 23.3 µM (inactive); in the assay on M19-MEL, 35.3 µM (inactive) and 44.6 µM (inactive); in the assay on SNB-78 it was 25.9 µM (inactive) and 27.2 µM (inactive); with XF498 it was 38.5 µM (inactive) and 23.4 µM (inactive).
With `CC1=CC(=O)c2ccc3c4ccccc4n(C)c3c2C1=O`, the GI50 is 62.8 µM (inactive) with DLD-1; 43.4 µM (inactive) in the assay with DMS-273; 4.4 µM (inactive) in the assay with HOP-18; 25.8 µM (inactive) with LXFL 529; 10.1 µM (inactive) in the assay on M19-MEL; 90.8 µM (inactive) in the assay on SNB-78. In addition, the GI50 in the assay on XF498 is 29.2 µM (inactive).
Turning to `O=C(O)CSc1nnc(-c2ccccc2O)[nH]1`, the GI50 in the assay with DLD-1, in the assay with DMS-273, in the assay on KM-20L2, in the assay with LXFL 529, with M19-MEL and with RXF 631 was > 100 µM (inactive) throughout. For the same compound, the GI50 in the assay with SNB-78 and in the assay with XF498 was > 100 µM (inactive) each time.
`CCCCCCCCCCCCCCCCCCOCC(COCCOCC[N+]1(CCCCCC(=O)[O-])CCCC1)Oc1ncccn1` (stereo unspecified): the GI50 is 2.18 µM (inactive) with DLD-1; 0.37 µM (active) in the assay with DMS-273; 4.85 µM (inactive) with HOP-18; 1.4 µM (inactive) with KM-20L2; 0.7 µM (active) with M19-MEL; 2.56 µM (inactive) in the assay with SNB-78. For the same compound, the GI50 in the assay on XF498 is 2.1 µM (inactive).
In the case of `CN(C)/N=N/c1cccc(C(N)=O)c1`, the GI50 in the assay on DLD-1, with DMS-273, in the assay with HOP-18, in the assay with KM-20L2, in the assay with LXFL 529 and with M19-MEL was > 100 µM (inactive) in each case. For the same compound, the GI50 in the assay on SNB-78 and in the assay on XF498 was > 100 µM (inactive) throughout.
As to `CSC1C=C(C(C)C)CCC1(C)SC` (stereo unspecified), the GI50 with DLD-1 was 18 µM (inactive); with DMS-273, 19 µM (inactive); in the assay on KM-20L2 it was 28.2 µM (inactive); in the assay on LXFL 529, 18.4 µM (inactive); in the assay on M19-MEL, 16.9 µM (inactive); in the assay with SNB-78, 16.5 µM (inactive). Also, the GI50 with XF498 is 19.6 µM (inactive).
`CC1=NN(C(=O)Nc2ccccc2)C(=O)C2CCC(=O)N12` (stereo unspecified): the GI50 in the assay on DLD-1, in the assay with DMS-273, in the assay on KM-20L2, in the assay with LXFL 529, with M19-MEL and in the assay on RXF 631 was > 100 µM (inactive) in each case. Also, the GI50 in the assay on SNB-78 and in the assay on XF498 was > 100 µM (inactive) each time.
As to `c1ccc(SC(Sc2ccccc2)=C2CCC2)cc1`, the GI50 with DLD-1, in the assay on DMS-273, in the assay on KM-20L2, in the assay on M19-MEL, in the assay on RXF 631 and in the assay with SNB-78 was > 100 µM (inactive) throughout. Moreover, the GI50 in the assay with XF498 was 49.8 µM (inactive).
Regarding `C=CCc1ccc(O)c(-c2cc(C3Oc4c(-c5cc(CC=C)ccc5O)cc(O)cc4[C@@H]3CO)ccc2O)c1` (stereo partly specified), the GI50 in the assay on DLD-1 was 18 µM (inactive); in the assay with DMS-273, 20.4 µM (inactive); in the assay with HOP-18, 32.4 µM (inactive); in the assay on KM-20L2, 26.7 µM (inactive); in the assay on LXFL 529 it was 19.8 µM (inactive); with M19-MEL, 33.4 µM (inactive). Further, the GI50 in the assay on SNB-78 is 39.9 µM (inactive).
`O=c1c2ccccc2nc(-c2ccccc2Cl)n1NC1OC(CO)C(O)C(O)C1O` (stereo unspecified): the GI50 is > 100 µM (inactive) in the assay with DLD-1; > 100 µM (inactive) in the assay on DMS-273; 32 µM (inactive) in the assay with HOP-18; > 100 µM (inactive) with KM-20L2; > 100 µM (inactive) in the assay on LXFL 529; > 100 µM (inactive) with M19-MEL. The GI50 with SNB-78 and in the assay with XF498 was > 100 µM (inactive) in each case.
For `CSc1nnc(COc2ccc(Cl)cc2)o1`, the GI50 with DLD-1, with DMS-273, with KM-20L2, in the assay with LXFL 529, with M19-MEL and with SNB-78 was > 100 µM (inactive) in each case. Moreover, the GI50 with XF498 was > 100 µM (inactive).
As to `CC(C)O/C=C1\C(=O)C2(SCCS2)[C@H]2CCCC[C@@H]12`, the GI50 with DLD-1 is 45.9 µM (inactive); in the assay on DMS-273, 37.2 µM (inactive); with HOP-18, 44.6 µM (inactive); in the assay with KM-20L2, 39.5 µM (inactive); in the assay with LXFL 529 it was 33.7 µM (inactive); with M19-MEL it was 71 µM (inactive). Also, the figures for the GI50 in the assay on RXF 631 and with SNB-78 were 52.8 µM (inactive) and 49 µM (inactive), respectively.
Turning to `CCCCCCCCCCCCCCCC(=O)NCC(COP(=O)([O-])OCC[N+](C)(C)C)OCC` (stereo unspecified), the GI50 is 5.19 µM (inactive) in the assay on DLD-1; 2.36 µM (inactive) in the assay with DMS-273; 0.92 µM (active) with HOP-18; 4.01 µM (inactive) in the assay with KM-20L2; 13.1 µM (inactive) in the assay on LXFL 529; 4.5 µM (inactive) in the assay with M19-MEL. The figures for the GI50 in the assay with SNB-78 and with XF498 were 14.1 µM (inactive) and 12.1 µM (inactive), respectively.
Turning to `COC12C(COC(=O)NCCO)C3=C(C(=O)C(C)=C(N)C3=O)N1CC1NC12` (stereo unspecified), the GI50 is 41.4 µM (inactive) in the assay on DLD-1; 2.52 µM (inactive) with DMS-273; 36.8 µM (inactive) in the assay with HOP-18; 37.9 µM (inactive) with KM-20L2; 56.2 µM (inactive) with LXFL 529; 19.8 µM (inactive) with M19-MEL. Besides, in the assay on SNB-78, the GI50 was 80.5 µM (inactive).
In the case of `COc1ccc(NC(=O)CC(=O)N/N=C(\C)c2cc3ccccc3oc2=O)cc1`, the GI50 in the assay on DLD-1 is > 100 µM (inactive); in the assay on DMS-273, > 100 µM (inactive); in the assay with HOP-18, 80.5 µM (inactive); in the assay with KM-20L2, > 100 µM (inactive); with M19-MEL it was > 100 µM (inactive).
`O=C1C(=Cc2ccc(F)cc2)C(=O)c2ccccc21`: the GI50 in the assay on DLD-1 is > 100 µM (inactive); in the assay on DMS-273, > 100 µM (inactive); in the assay with KM-20L2 it was > 100 µM (inactive); in the assay with LXFL 529 it was > 100 µM (inactive); in the assay on M19-MEL, 96.2 µM (inactive); in the assay on RXF 631, > 100 µM (inactive). Besides, the GI50 in the assay on XF498 was > 100 µM (inactive).
With `OC12CCC3(OC4CCCCO4)c4ccccc4C3C1c1ccccc12` (stereo unspecified), the GI50 in the assay on DMS-273 was 61.7 µM (inactive); in the assay with HOP-18, > 100 µM (inactive); with KM-20L2, 59.3 µM (inactive); with LXFL 529, 41.2 µM (inactive); in the assay with M19-MEL it was 90.4 µM (inactive); in the assay on SNB-78, > 100 µM (inactive). The GI50 with XF498 was 31.8 µM (inactive).
As to `C/C(=N/O)c1ccc2c(c1)/C(=N/O)c1cc(/C(C)=N/O)ccc1-2`, the GI50 in the assay with DLD-1 is 16.1 µM (inactive); in the assay with DMS-273 it was 23.8 µM (inactive); in the assay with HOP-18 it was 14.1 µM (inactive); with KM-20L2 it was 17.4 µM (inactive); in the assay on LXFL 529, 14.3 µM (inactive); in the assay with M19-MEL, 19.4 µM (inactive). Also, the results for the GI50 in the assay on SNB-78 and with XF498 were 17.5 µM (inactive) and 21.8 µM (inactive), respectively.
As for `COc1ccc(NC(=O)CC/C(CC(=O)c2ccccc2Cl)=N\Nc2nnc(C)n2N)cc1`, the GI50 in the assay on DLD-1, with DMS-273, with HOP-18, with KM-20L2, in the assay with LXFL 529 and in the assay on M19-MEL was > 100 µM (inactive) each time. The GI50 in the assay with RXF 631 and with SNB-78 was > 100 µM (inactive) in each case.
`COc1ccc(C(=O)C(CC2C(=O)NC(=O)NC2=O)c2ccc(OC)cc2)cc1` (stereo unspecified): the GI50 in the assay on DLD-1, in the assay with DMS-273, with HOP-18, with KM-20L2, in the assay on LXFL 529 and in the assay on M19-MEL was > 100 µM (inactive) throughout. Further, the GI50 in the assay on SNB-78 and in the assay on XF498 was > 100 µM (inactive) each time.
On to `NC(=O)c1nc(-c2ccc(Cl)c(Cl)c2)nc2ccccc12`, for which the GI50 was > 22.8 µM (inactive) in the assay with DLD-1; 34.8 µM (inactive) in the assay on HOP-18; > 100 µM (inactive) with KM-20L2; > 26.4 µM (inactive) with LXFL 529; > 38.1 µM (inactive) with M19-MEL; > 23.7 µM (inactive) in the assay on SNB-78. For the same compound, the GI50 in the assay with XF498 is 57.8 µM (inactive).
On to `CCC12C=CCN(CCc3c([nH]c4ccccc34)/C=C\1)C2` (stereo unspecified), for which the GI50 is > 10 µM (inactive) in the assay on DLD-1; > 100 µM (inactive) with DMS-273; > 100 µM (inactive) in the assay on HOP-18; > 100 µM (inactive) in the assay with KM-20L2; > 100 µM (inactive) with LXFL 529; > 100 µM (inactive) with M19-MEL. The GI50 in the assay with RXF 631 and with XF498 was > 100 µM (inactive) throughout.
Take `CC1=CC(=C(c2ccc(N)c(C)c2)c2ccc(N)c(C)c2)C=CC1=N`: the GI50 in the assay with DLD-1 is 3.78 µM (inactive); in the assay on DMS-273, 2.45 µM (inactive); in the assay with KM-20L2 it was 3.33 µM (inactive); in the assay on LXFL 529 it was 1.27 µM (inactive); in the assay on M19-MEL, 2.65 µM (inactive); with SNB-78, 4.84 µM (inactive). Moreover, the GI50 with XF498 is 2.91 µM (inactive).
